From patent US7427612B2, “Benzoyl-piperazine derivatives” (Hoffmann-La Roche Inc., priority 2003, dated 2008)

Biological target: T1, mGlyT-1b (Mus musculus, UniProt P28571)
T1 construct: host or cells: Flp-in CHO cells, stably transfected
T1 sequence (P28571 1-651 isoform P28571-2): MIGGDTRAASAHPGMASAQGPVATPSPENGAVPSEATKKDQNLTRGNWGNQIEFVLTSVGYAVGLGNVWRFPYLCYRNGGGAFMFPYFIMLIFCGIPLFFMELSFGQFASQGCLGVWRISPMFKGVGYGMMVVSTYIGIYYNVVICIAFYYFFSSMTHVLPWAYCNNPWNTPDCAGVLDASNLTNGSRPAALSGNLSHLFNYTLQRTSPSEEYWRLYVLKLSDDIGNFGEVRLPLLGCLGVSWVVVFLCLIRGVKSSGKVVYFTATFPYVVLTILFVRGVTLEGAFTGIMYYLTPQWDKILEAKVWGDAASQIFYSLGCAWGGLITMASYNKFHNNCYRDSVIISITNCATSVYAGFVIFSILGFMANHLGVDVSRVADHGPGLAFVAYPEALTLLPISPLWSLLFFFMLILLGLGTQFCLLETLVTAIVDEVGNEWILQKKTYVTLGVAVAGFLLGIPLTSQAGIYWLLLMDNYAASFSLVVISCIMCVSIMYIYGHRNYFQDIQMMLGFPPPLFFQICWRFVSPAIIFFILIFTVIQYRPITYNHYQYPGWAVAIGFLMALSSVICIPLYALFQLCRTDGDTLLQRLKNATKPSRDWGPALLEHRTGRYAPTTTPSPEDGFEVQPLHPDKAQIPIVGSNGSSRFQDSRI
Test: Glycine uptake inhibition assay (mGlyT-1b)
Type: cell-based
Conditions: inhibition of [3H]-glycine uptake in Flp-in-CHO cells stably transfected with mGlyT1b cDNA; 20 min at 22° C.
Procedure: DMEM complete medium: Nutrient mixture F-12 (Gibco Life-technologies), fetal bovine serum (FBS) 5%, (Gibco life technologies), Penicillin/Streptomycin 1% (Gibco life technologies), Hygromycin 0.6 mg/ml (Gibco life technologies), Glutamine 1 mM Gibco life technologies)
Uptake buffer (UB): 150 mM NaCl, 10 mM Hepes-Tris, pH 7.4, 1 mM CaCl2, 2.5 mM KCl, 2.5 mM MgSO4, 10 mM (+) D-glucose. Flp-in™—CHO (Invitrogen Cat n° R758-07)cells stably transfected with mGlyT1b cDNA.
Glycine uptake inhibition assay (mGlyT-1b)
On Day 1 mammallian cells, (Flp-in™—CHO), transfected with mGlyT-1b cDNA, were plated at the density of 40,000 cells/well in complete F-12 medium, without hygromycin in 96-well culture plates. On day 2, the medium was aspirated and the cells were washed twice with uptake buffer (UB). The cells were then incubated for 20 min at 22° C. with either (i) no potential competitor, (ii) 10 mM non-radioactive glycine, (iii) a concentration of a potential inhibitor. A range of concentrations of the potential inhibitor was used to generate data for calculating the concentration of inhibitor resulting in 50% of the effect (e.g. IC50, the concentration of the competitor inhibiting glycine uptake of 50%). A solution was then immediately added containing [^3H]-glycine 60 nM (11-16 Ci/mmol) and 25 μM non-radioactive glycine. The plates were incubated with gentle shaking and the reaction was stopped by aspiration of the mixture and washing (three times) with ice-cold UB. The cells were lysed with scintillation liquid, shaken 3 hours and the radioactivity in the cells was counted using a scintillation counter.

## CNS(=O)(=O)c1ccc(N2CCCCC2)c(C(=O)N2CCN(c3ccc(C(F)(F)F)cc3F)CC2)c1 [Example 250, 3-[4-(2-Fluoro-4-trifluoromethyl-phenyl)-piperazine-1-carbonyl]-N-methyl-4-piperidin-1-yl-benzenesulfonamide]
  IC50: 0.015 µM

## CNS(=O)(=O)c1ccc(N2CCOCC2)c(C(=O)N2CCN(c3ccc(C(F)(F)F)cc3)CC2)c1 [Example 131, N-Methyl-4-morpholin-4-yl-3-[4-(4-trifluoromethyl-phenyl)-piperazine-1-carbonyl]-benzenesulfonamide]
  IC50: 0.008 µM

## CNS(=O)(=O)c1ccc(N2CCCC2)c(C(=O)N2CCN(c3ccc(C#N)cc3)CC2)c1 [Example 233, 3-[4-(4-Cyano-phenyl)-piperazine-1-carbonyl]-N-methyl-4-pyrrolidin-1-yl-benzenesulfonamide]
  IC50: 0.016 µM
